Experimental data as given in ChEMBL document CHEMBL1154193, “Carbonic anhydrase II-induced selection of inhibitors from a dynamic combinatorial library of Schiff's bases” (Bioorg Med Chem Lett, 2009).

Target: Carbonic anhydrase 2 (Homo sapiens, UniProt P00918)
Description: Inhibition of human carbonic anhydrase 2-catalyzed CO2 hydration by stopped flow technique

- Ki: 702 nM
Compound: NS(=O)(=O)c1ccc(/N=C/c2ccc(O)cc2)cc1
